Source: article PMC10342533, “Novel Tetrazole Derivatives Targeting Tubulin Endowed with Antiproliferative Activity against Glioblastoma Cells” (International Journal of Molecular Sciences, 2023)
≈ marks a conversion by molar mass, not a printed value.

Columns and labels:
[1] = Aqueous solubility, shake-flask method, phosphate buffer pH 7.4; format: physicochemical; settings: thermodynamic from solid, phosphate buffer pH 7.4, shake-flask, mean ± SD of three experiments
Method: The aqueous solubility of tetrazole derivatives was determined by the shaking flask methodology in phosphate buffer at pH 7.4, microfiltration, and quantification of the saturated solutions via UV spectroscopy. […] The introduction of polar groups on the 3-indole position was favorable since the most soluble compounds were the oximes 16–19 (38–53 µg/mL), followed by the carbaldehyde series 12–15 (33–45 µg/mL), and the carbonitrile derivatives (25–40 µg/mL), whereas the unsubstituted indoles 8–11 were the least soluble series (19–35 µg/mL).
The aqueous solubility of the compounds was determined using the saturation shake-flask method. First, calibration lines at the maximum wavelength of absorbance were determined for each compound. Then, 5 mg of each compound was suspended in 500 µL of pH 7.4 buffer, and the resulting mixture was shaken for 72 h at room temperature and filtrated over a […] filter to remove the insoluble fraction. The concentration of the compound in the supernatant (saturated solution) was determined by measuring UV absorbance at the maximum wavelength of absorbance and interpolation in the calibration line. A Helios Alfa Spectrophotometer was used for the UV measurements. The aqueous solubility values are given as the average of three independent experiments.

[2] = system: MCF7 (breast adenocarcinoma); experiment: Cell growth inhibition, MTT assay, MCF7; format: cell-based; settings: Homo sapiens
Method: (§1) The ability of the synthesized compounds to inhibit the cell proliferation of human cancer cell lines was assayed by measuring cell viability through the use of the MTT method 72 h after treatment. For this purpose, representative cell lines of the most frequent kinds of cancer were selected, including the following: HeLa (cervix epithelioid carcinoma), MCF7 (breast adenocarcinoma), U87 MG (glioblastoma), T98G (temozolomide resistant glioblastoma), HepG2 (hepatocellular carcinoma), HCT8 (colorectal carcinoma), and HT-29 (colon adenocarcinoma).
(§2) The cell lines were obtained from ATTC (Manassas, VA, USA). […] The cells were periodically tested for Mycoplasma infection by using a MycoAlert kit (Lonza, Norwest, Australia), and only Mycoplasma-free cells were used in the experiments.
(§3) Then, every compound was added (10 µL/well) to a final concentration of 10 µM. Untreated cells were used as negative controls. The antiproliferative activity of compounds was measured 72 h after drug exposure through the MTT assay. […] For this purpose, compounds were used at different concentrations, ranging from 10^−10 to 10^−2 M. Measurements were performed in triplicate, and each experiment was repeated three times. The IC50 values were determined using Origin software (version 9.6, OriginLab, Washington, DC, USA).

[3] = system: T98G (temozolomide resistant glioblastoma); experiment: Cell growth inhibition, MTT assay, T98G; format: cell-based; settings: Homo sapiens
Method: as §1, §2, §3

[4] = system: HepG2 (hepatocellular carcinoma); experiment: Cell growth inhibition, MTT assay, HepG2; format: cell-based; settings: Homo sapiens
Method: as §1, §2, §3

[5] = molecular target: T1, microtubular protein isolated from calf brains (bovine brain tubulin) (Bos taurus, UniProt P81947+Q6B856); experiment: Tubulin polymerization inhibition (TPI); format: biochemical; settings: in vitro tubulin polymerization, mean ± SD
T1 construct: from tissue; host or cells: calf (bovine) brain
T1 sequence (Q6B856 whole entry): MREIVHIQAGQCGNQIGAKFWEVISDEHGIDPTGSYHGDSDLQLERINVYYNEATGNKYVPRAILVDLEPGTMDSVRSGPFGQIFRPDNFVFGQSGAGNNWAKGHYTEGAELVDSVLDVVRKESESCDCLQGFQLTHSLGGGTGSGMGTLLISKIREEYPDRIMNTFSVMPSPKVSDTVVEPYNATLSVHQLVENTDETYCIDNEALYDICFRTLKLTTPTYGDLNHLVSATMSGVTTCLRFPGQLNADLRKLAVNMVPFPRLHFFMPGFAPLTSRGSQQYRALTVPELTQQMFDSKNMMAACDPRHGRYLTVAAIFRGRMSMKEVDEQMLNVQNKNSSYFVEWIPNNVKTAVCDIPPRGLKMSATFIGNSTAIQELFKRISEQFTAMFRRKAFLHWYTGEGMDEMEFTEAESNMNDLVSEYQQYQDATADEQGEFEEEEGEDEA
T1 sequence (P81947 whole entry): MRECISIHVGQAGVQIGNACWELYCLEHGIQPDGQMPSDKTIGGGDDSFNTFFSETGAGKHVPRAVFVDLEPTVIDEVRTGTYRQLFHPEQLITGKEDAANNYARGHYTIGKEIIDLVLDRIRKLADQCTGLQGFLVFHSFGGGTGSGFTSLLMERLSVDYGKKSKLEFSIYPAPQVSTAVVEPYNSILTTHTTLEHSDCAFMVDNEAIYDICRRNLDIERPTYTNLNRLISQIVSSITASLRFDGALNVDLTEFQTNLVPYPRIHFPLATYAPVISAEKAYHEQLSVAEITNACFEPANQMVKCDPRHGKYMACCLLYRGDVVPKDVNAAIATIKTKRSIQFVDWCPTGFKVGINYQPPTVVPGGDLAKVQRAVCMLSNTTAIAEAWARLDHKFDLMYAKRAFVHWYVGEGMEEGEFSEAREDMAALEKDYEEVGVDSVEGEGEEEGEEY
Method: We evaluated the capacity of the new synthesized compounds to inhibit the polymerization of microtubular protein isolated from calf brains. The assays were performed by taking absorbance measurements to quantify the amount of polymer mass formed in the presence (or absence; negative controls) of the compounds.
Bovine brain tubulin was isolated as previously described by following a modified version of the Shelanski method. The protein was stored at −80 °C, and its concentration was determined by employing the Bradford method before each use. […] Tubulin polymerization, caused when heating the samples, was accompanied by an increase in the absorbance (at 450 nm) of the sample that was monitored by using a Helios α spectrophotometer. […] Measurements were performed in triplicate in two independent experiments using microtubular proteins from different preparations.

[6] = system: U87 MG cells; experiment: Apoptotic cell death quantification, Annexin V-FITC/PI, U87 MG; format: cell-based, human; settings: 72 h, 100 nM; for Necrotic cells: PI+ AnV−; for Live cells: PI− AnV−
Method: To characterize the cell death mechanism induced by the representative compounds 10, 12, or 14 at 100 nM on HeLa, MCF7, and U87 MG cells, dual-channel flow cytometry studies were carried out for cells in the absence (negative control) or presence of compounds 72 h after treatment. Fluorescein isothiocyanate-labeled Annexin V (FITC-AnV) and propidium iodide (PI) were used for double staining. Regarding their response to AnV and PI, cells can be identified as viable (PI−, AnV−), early apoptotic (PI−, AnV+), late apoptotic or secondary necrotic (PI+, AnV+), or necrotic (PI+, AnV−). The translocation of the phosphatidylserine from the inner to the outer cell membrane causes the response of apoptotic cells to AnV, whereas only cells suffering some kind of membrane disintegration (late apoptotic or necrotic cells) allow PI permeation.
Following the manufacturer’s guidelines, an Annexin V-FITC/PI apoptosis detection kit (Immunostep, Salamanca, Spain) was used to quantify HeLa, MCF7, or U87 MG cells. Cells were seeded in 12-well plates (5·10^4 cells/mL, 1 mL/well) and incubated in complete DMEM medium (see above) at 37 °C and 5% CO2 atmosphere for 24 h. Then, the cells were treated with selected compounds (10, 12, or 14) at 100 nM, and untreated cells were used as negative controls. Then, 72 h after incubation, the cells were harvested, centrifugated, resuspended in the Annexin V binding buffer, and incubated in darkness with Annexin V-FITC/PI for 15 min at room temperature. The samples were analyzed by using a BD Accuri™ C6 Plus Flow Cytometer (BD Biosciences), and acquired data were analyzed via BD Accuri™ C6 Software (version 1.0.264.21).

Row | solubility at 72 h [1] | IC50 ([2]; 72 h after drug exposure) | IC50 ([2]; mean ± SD, Table S1) | IC50 ([3]; 72 h, 72 h after drug exposure) | IC50 ([4]; 72 h after drug exposure) | IC50 ([4]; mean ± SD, Table S1) | IC50 [5] | IC50 ([3]; mean ± SD, Table S1) | SMILES | apoptotic response [6] | Necrotic cells [6] | Live cells [6]
1 | 26.1 ± 0.2 µg/mL (≈ 73.1 µM) | 38 nM | 38.4 ± 0.4 nM | 25 nM | 37 nM | 37.1 ± 0.2 nM | 1500 ± 100 nM | – | CSc1cc(-c2nnnn2-c2ccc3c(ccn3C)c2)cc(Cl)n1 [Compound 10, 5-(5-(2-chloro-6-(methylsulfanyl)pyridin-4-yl)-1H-tetrazol-1-yl)-1-methyl-1H-indole] | 70–74% | 15–19% | 9–15%
2 | 33.1 ± 0.3 µg/mL (≈ 88.7 µM) | 37 nM | 37.3 ± 0.2 nM | 26 nM | 36 nM | 36.4 ± 0.2 nM | 1300 ± 100 nM | 26.2 ± 0.2 nM | Cn1cc(C=O)c2cc(-n3nnnc3-c3cc(Cl)nc(Cl)c3)ccc21 [Compound 12, 5-(5-(2,6-dichloropyridin-4-yl)-1H-tetrazol-1-yl)-1-methyl-1H-indole-3-carbaldehyde] | 70–74% | 15–19% | 9–15%
3 | 36.9 ± 0.3 µg/mL (≈ 95.9 µM) | 26 nM | 26.2 ± 0.1 nM | 19 nM | 31 nM | 31.1 ± 0.3 nM | 800 ± 100 nM | – | CSc1cc(-c2nnnn2-c2ccc3c(c2)c(C=O)cn3C)cc(Cl)n1 [Compound 14, 5-(5-(2-chloro-6-(methylsulfanyl)pyridin-4-yl)-1H-tetrazol-1-yl)-1-methyl-1H-indole-3-carbaldehyde] | 70–74% | 15–19% | 9–15%
